Experimental data taken from US20230405316A1, “COMPOSITIONS, SYSTEMS, AND METHODS FOR TREATING CANCER USING TUMOR TREATING FIELDS AND VEGF INHIBITORS” (Novocure Gmbh, priority 2022, published 2023).
Structures can show the parent of a compound that is named as a salt.

Legend:
VEGFR-2 = VEGFR-2 (Homo sapiens, UniProt P35968); settings: cited from earlier work
VEGFR-1 = VEGFR-1 (Homo sapiens, UniProt P17948); settings: cited from earlier work
VEGFR-3 = VEGFR-3 (Homo sapiens, UniProt P35916); settings: cited from earlier work
[1] = tested on: ovarian carcinoma cell line (A2780); experiment: Concomitant therapy with TTFields and lenvatinib, cell count and apoptosis; assay type: cell-based; settings: A2780 cells, 4 μM Lenvatinib combined with TTFields vs either therapy alone
Experimental: FIG. 5 contains photomicrographs of A2780 cells following TTFields treatment alone, treatment with 4 μM Lenvatinib, and concomitant therapy with both TTFields and 4 μM Lenvatinib.
In particular, the combinatorial effect of TTFields and lenvatinib was examined in an ovarian carcinoma cell line (A2780).

VEGFR-3, sequence (P35916 25-1363, species assumed): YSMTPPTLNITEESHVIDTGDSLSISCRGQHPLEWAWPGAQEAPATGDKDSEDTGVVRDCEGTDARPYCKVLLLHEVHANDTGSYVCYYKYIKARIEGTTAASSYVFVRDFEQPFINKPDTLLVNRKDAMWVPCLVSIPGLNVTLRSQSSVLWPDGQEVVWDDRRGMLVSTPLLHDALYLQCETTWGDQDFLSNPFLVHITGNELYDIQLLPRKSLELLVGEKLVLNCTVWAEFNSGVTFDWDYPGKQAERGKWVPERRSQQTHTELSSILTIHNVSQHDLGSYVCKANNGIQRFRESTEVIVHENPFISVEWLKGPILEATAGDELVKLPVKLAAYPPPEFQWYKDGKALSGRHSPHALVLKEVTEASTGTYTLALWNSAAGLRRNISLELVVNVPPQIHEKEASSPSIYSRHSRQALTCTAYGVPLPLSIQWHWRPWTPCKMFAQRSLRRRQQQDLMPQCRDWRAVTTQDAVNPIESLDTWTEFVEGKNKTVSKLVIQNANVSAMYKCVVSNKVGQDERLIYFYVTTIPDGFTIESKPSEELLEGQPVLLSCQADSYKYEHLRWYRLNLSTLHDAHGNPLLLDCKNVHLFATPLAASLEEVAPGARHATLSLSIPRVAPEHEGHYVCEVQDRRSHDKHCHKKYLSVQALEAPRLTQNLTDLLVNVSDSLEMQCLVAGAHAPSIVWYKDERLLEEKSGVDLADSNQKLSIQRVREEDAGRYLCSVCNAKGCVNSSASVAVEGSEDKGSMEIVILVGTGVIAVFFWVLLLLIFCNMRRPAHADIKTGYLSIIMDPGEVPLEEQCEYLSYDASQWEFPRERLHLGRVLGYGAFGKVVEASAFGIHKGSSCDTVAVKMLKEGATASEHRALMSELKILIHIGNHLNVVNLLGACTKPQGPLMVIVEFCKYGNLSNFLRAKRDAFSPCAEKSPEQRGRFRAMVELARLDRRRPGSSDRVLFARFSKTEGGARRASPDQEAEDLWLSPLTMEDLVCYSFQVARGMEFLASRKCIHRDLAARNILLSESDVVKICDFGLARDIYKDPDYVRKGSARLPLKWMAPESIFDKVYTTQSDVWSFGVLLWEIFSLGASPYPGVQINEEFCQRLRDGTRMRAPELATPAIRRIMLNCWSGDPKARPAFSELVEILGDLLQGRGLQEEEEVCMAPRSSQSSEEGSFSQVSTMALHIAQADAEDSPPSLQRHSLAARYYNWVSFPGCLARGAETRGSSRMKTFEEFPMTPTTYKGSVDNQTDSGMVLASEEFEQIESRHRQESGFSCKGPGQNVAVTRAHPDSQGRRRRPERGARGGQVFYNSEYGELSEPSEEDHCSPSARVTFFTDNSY
VEGFR-1, sequence (P17948 27-1338, species assumed): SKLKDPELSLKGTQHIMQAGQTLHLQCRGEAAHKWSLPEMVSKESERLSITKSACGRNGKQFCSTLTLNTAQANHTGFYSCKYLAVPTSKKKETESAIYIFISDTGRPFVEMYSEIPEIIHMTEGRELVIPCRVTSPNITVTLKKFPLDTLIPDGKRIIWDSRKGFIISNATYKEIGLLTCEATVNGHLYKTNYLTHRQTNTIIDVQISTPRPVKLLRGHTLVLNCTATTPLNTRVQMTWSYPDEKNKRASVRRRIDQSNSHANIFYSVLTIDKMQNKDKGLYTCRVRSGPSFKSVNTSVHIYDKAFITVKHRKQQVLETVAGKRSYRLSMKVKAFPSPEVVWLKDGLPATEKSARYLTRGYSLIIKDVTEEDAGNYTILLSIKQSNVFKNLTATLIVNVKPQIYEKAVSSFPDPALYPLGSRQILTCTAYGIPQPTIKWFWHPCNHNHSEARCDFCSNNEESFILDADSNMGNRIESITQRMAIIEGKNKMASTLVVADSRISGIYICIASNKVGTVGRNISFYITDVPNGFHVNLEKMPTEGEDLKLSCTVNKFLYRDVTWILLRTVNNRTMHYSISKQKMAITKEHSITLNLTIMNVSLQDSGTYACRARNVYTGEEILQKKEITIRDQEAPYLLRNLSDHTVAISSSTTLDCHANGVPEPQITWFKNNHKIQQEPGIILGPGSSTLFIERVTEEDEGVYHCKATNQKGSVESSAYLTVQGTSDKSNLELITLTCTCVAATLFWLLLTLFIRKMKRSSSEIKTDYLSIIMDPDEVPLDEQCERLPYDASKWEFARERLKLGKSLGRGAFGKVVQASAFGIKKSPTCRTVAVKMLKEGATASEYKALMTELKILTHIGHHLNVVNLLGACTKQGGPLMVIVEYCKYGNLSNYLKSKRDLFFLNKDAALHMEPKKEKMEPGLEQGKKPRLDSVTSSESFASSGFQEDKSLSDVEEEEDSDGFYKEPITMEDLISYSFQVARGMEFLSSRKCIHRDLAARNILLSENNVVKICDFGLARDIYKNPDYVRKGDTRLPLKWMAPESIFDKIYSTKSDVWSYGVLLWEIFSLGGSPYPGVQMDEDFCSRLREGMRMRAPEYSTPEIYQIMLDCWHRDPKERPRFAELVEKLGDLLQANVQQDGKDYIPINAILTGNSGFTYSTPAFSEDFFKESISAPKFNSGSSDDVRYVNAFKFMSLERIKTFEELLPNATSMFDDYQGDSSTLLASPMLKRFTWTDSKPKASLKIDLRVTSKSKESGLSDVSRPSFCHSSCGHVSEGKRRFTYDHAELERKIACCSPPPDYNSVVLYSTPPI
VEGFR-2, sequence (P35968 20-1356, species assumed): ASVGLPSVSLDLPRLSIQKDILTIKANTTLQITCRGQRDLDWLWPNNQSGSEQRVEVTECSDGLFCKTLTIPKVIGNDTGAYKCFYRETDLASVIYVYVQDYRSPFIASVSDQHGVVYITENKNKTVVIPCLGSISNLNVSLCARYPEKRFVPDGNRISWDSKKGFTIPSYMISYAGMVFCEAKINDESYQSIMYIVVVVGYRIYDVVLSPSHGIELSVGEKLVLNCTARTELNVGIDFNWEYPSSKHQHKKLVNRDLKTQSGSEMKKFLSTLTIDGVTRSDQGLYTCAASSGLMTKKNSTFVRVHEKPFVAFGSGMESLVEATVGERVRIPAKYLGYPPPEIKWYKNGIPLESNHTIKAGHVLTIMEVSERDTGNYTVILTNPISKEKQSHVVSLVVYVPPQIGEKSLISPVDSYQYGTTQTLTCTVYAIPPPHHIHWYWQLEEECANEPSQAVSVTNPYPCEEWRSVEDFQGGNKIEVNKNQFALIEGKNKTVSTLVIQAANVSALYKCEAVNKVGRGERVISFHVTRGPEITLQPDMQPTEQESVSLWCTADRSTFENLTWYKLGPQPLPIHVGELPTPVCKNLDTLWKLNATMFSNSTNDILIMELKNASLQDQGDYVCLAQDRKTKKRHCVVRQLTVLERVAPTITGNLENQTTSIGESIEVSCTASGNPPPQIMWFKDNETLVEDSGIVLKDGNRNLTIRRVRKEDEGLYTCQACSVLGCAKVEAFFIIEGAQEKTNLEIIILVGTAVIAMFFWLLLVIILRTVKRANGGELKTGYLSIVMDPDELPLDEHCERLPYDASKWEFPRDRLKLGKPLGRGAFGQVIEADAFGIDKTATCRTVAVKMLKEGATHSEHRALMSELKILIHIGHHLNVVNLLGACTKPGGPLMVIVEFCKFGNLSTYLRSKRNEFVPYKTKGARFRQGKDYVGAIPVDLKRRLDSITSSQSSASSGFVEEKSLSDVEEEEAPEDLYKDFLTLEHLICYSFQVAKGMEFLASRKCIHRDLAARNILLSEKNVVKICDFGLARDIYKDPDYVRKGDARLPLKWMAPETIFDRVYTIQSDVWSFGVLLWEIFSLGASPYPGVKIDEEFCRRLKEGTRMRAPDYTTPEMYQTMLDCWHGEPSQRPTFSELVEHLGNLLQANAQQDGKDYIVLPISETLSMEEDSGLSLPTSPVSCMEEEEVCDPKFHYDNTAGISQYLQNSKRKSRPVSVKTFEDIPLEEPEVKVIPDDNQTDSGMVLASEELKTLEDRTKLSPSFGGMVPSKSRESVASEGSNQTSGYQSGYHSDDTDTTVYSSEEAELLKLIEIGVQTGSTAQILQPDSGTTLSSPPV

In the case of `Cc1cc(F)c(Nc2ncnc3cc(OCc4ccccc4)ccc23)cc1O` [ZM 323881 HCl], the IC50 (VEGFR-2) is listed as less than 2 nM.
For `COc1cc2c(Oc3ccc4[nH]c(C)cc4c3F)ccnc2cc1OCC1(N)CC1` [Anlotinib], the “IC50 for VEGFR-1” value (VEGFR-1) is given as “Does not bind”, the IC50 (VEGFR-2) is given as less than 1 nM and the “IC50 for VEGFR-3” value (VEGFR-3) is given as “Does not bind”.
In the case of `Cc1[nH]c(/C=C2\C(=O)Nc3ccc(F)cc32)c(C)c1C(=O)NC[C@H](O)CN1CCOCC1` [SU14813], the IC50 (VEGFR-1) is given as 2 nM and the IC50 (VEGFR-2) is given as 50 nM.
In the case of `COc1cc2c(cc1F)C(c1ccccc1Cl)=Nc1c(n[nH]c1C)N2` [R1530], the IC50 (VEGFR-2) is listed as 10 nM.
For `COc1cc2nccc(Oc3ccc(NC(=O)C4(C(=O)Nc5ccc(F)cc5)CC4)cc3)c2cc1OC` [Cabozantinib], the “IC50 for VEGFR-3” value (VEGFR-3) is given as “Does not bind”.
For `Cn1cc(-c2ccc3c(c2)ncn3-c2cc(NS(=O)(=O)C3CC3)cc(-c3ccc(F)cc3F)c2)cn1` [ODM-203], the IC50 (VEGFR-1) is listed as 26 nM, the IC50 (VEGFR-2) is listed as 9 nM and the IC50 (VEGFR-3) is listed as 5 nM.
In the case of `Cc1c(C(=O)Nc2ccc(Oc3ccnc4cc(OCC(C)(C)O)ccc34)c(F)c2)c(=O)n(-c2ccccc2)n1C` [Ningetinib], the IC50 (VEGFR-2) is given as 1.9 nM.
In the case of `COc1cc2nccc(Oc3ccc(NC(=O)NC4CC4)c(Cl)c3)c2cc1C(N)=O` [Lenvatinib], the “effect of concomitant therapy on apoptosis” value [1] is reported as “enhanced effect over either therapy alone” and the “effect of concomitant therapy on cell count” value [1] is reported as “enhanced effect over either therapy alone”.
In the case of `CNC(=O)c1cc2c(Oc3ccc(NC(=O)C4(C(=O)Nc5ccc(F)cc5)CC4)cc3)ccnc2cc1OC` [XL092], the IC50 (VEGFR-2) is given as 1.6 nM.
For `COc1cc2nccc(Oc3ccc(NC(=O)Nc4ccc(F)cc4F)c(F)c3)c2cc1OC` [Ki8751], the IC50 (VEGFR-2) is given as 0.9 nM.
